Measured values as given in PMC9145865, “Effects of Rare Phytocannabinoids on the Endocannabinoid System of Human Keratinocytes” (International Journal of Molecular Sciences, 2022).
pIC50: −log10 of the molar value. Like-named read-outs stand apart in the source and are kept apart here.

Key:
CB2 [1] = experiment: Western blot protein expression of CB2; type: cell-based, human; conditions: HaCaT cells, half-IC50 dose, 24 h, vs. control
Procedure: (§1) The HaCaT cells were seeded into 6-well plates at a density of 4 × 10^4 per well, incubated overnight and then treated with the selected pCBs (6.0 µM of CBG, 4.0 µM of CBC, 9.0 µM of THCV and 13.0 µM of CBGA) for 24 h. The cell pellets were collected and then lysed in an ice-cold lysis buffer (10 mM of EDTA, 50 mM of pH 7.4 Tris–HCl, 150 mM of sodium chloride, 1% Triton-X-100, 2 mM of phenylmethylsulfonyl fluoride, 2 mM of sodium orthovanadate, […] of leupeptin and […] of aprotinin). The amount of protein was determined using the Bio-Rad Protein assay (Bio-Rad Laboratories, Hemel Hempstead, UK). An equal amount of protein (60 µg) was loaded onto 10% sodium dodecyl sulfate–polyacrylamide gels and blotted onto polyvinylidene fluoride sheets (Amersham Biosciences, Piscataway, NJ, USA). The membranes were blocked with dried 5% non-fat milk for 1 h and then incubated with suitable primary antibodies. Detection was performed using Azure Biosystems c400 (Dublin, CA, USA). The membranes were stripped using the Restore Western Blot Stripping Buffer from Thermo Fisher Scientific (Waltham, MA, USA) for 30 min under agitation at room temperature, according to the manufacturer’s instructions. The primary antibodies (Table 6) that were used were obtained from the following sources: […]

HaCaT cells = experiment: MTT cytotoxicity assay; type: cell-based, human; conditions: for pIC50: Homo sapiens, HaCaT cell viability; for relative toxicity on HaCaT cells: 6-24 h
Procedure: Immortalized HaCaT cells from the original depositor (DKFZ, Heidelberg) were purchased from CLS-Cell Lines Service (code 300493) and were of […] skin type (phototype). In all experiments, the HaCaT cells were cultured at 37 °C in a humidified 5% CO2 atmosphere in high-glucose Dulbecco’s Modified Eagle Medium (DMEM-HG), which was supplemented with 10% fetal bovine serum, and were used at the 5th–6th passage. Specific pCBs (CBG, CBC, THCV and CBGA) were used to treat the HaCaT cells at different time points (6 h, 12 h and 24 h) and at different concentrations (0.5 µM, 1.0 µM, 2.5 µM, 5.0 µM, 10 µM and 25 µM). Various doses of these pCBs were added directly to culture medium (with 1% fetal bovine serum) and the vehicles alone were added to controls, as follows: 0.8% methanol for CBG and CBC; 0.6% methanol for THCV; 0.6% acetonitrile for CBGA.
The HaCaT cells were seeded into 96-well plates at a density of 1 × 10^4 per well, incubated overnight and then treated with the selected pCBs at different concentrations (0.5 μM, 1.0 μM, 2.5 μM, 5.0 μM, 10 μM and 25 μM) for 6 h, 12 h and 24 h. Cell viability was assessed using a mitochondrial-dependent reduction of 3-[4,5-dimethylthiazol-2-yl]-2,5-diphenyl tetrazolium bromide (MTT) to purple formazan. After 4 h, the MTT solution was discarded and dimethyl sulfoxide (DMSO) was added to dissolve the formazan crystals. The cell viability was calculated by subtracting the 630 nm OD background from the 570 nm OD total signal of the cell-free blank of each sample and was expressed as percentage of the control (100%).

PPARδ = experiment: Western blot protein expression of PPARδ; type: cell-based, human; conditions: HaCaT cells, half-IC50 dose, 24 h, vs. control
Procedure: as §1

CB2 [2] = conditions: cited from earlier work
MAGL = MAGL activity assay in membranes of treated cells; type: cell-based, human; conditions: HaCaT cells, half-IC50 amount, 24 h, vs. control
Procedure: MAGL Assay: The HaCaT cells were seeded into 6-well plates at a density of 4 × 10^4 per well, incubated overnight and then treated with the selected pCBs (6.0 µM of CBG, 4.0 µM of CBC, 9.0 µM of THCV and 13.0 µM of CBGA) for 24 h. The cell pellets were collected and MAGL activity was determined using membranes that were isolated from these cells using the synthetic substrate arachidonoyl-1-thio-glycerol (200 μM) in 10 mM of Tris and 1 mM of EDTA pH 7.2 at 4 °C for 15 min [68]. The MAGL inhibitor JZL184 (4 μM), which was purchased from Sigma-Aldrich (St. Louis, MO, USA), was used to fully erase the enzyme activity as a control.

DAGLα/β = experiment: DAGL α/β activity assay in membranes of treated cells; type: cell-based, human; conditions: HaCaT cells, half-IC50 amount, 24 h, vs. control
Procedure: DAGL α/β Assay: The HaCaT cells were seeded into 6-well plates at a density of 4 × 10^4 per well, incubated overnight and then treated with the selected pCBs (6.0 µM of CBG, 4.0 µM of CBC, 9.0 µM of THCV and 13.0 µM of CBGA) for 24 h. The cell pellets were collected and DAGL α/β activity was determined using membranes that were isolated from these cells using the synthetic substrate p-nitrophenyl butyrate (pNPB) (8 mM) in 50 mM of HEPES pH 7.3 at room temperature for 20 min [68]. The DAGLα/β inhibitor KT172 (1 μM), which was purchased from Sigma-Aldrich (St. Louis, MO, USA), was used to fully erase the enzyme activity as a control.

NAPE-PLD = experiment: Western blot protein expression of NAPE-PLD; type: cell-based, human; conditions: HaCaT cells, half-IC50 dose, 24 h, vs. control
Procedure: as §1

PPARα = experiment: Western blot protein expression of PPARα; type: cell-based, human; conditions: HaCaT cells, half-IC50 dose, 24 h, vs. control
Procedure: as §1

human TRPV1 = system: human TRPV1; set-up: method as in PMID 21175579; conditions: over-expressed by HEK-293 cells; ref [41]; cited from earlier work
FAAH = FAAH activity assay in membranes of treated cells; type: cell-based, human; conditions: HaCaT cells, half-IC50 amount, 24 h, vs. control
Procedure: FAAH Assay: The HaCaT cells were seeded into 6-well plates at a density of 4 × 10^4 per well, incubated overnight and then treated with the selected pCBs (6.0 µM of CBG, 4.0 µM of CBC, 9.0 µM of THCV and 13.0 µM of CBGA) for 24 h. The cell pellets were collected and FAAH activity was determined using membranes that were isolated from these cells. Briefly, the membranes were incubated at pH 7.4 with 10 μM of [^3H]AEA and 50 mM of Tris–HCl, 0.05% BSA at 37 °C in water bath for 30 min. The reaction was blocked with 1 mL of chloroform–methanol (1:1 v/v) and centrifuged at 3000 rpm for 10 min at 4 °C. The aqueous (top) layer was collected and transferred into scintillation vials. The amount of [^3H]ethanolamine that was released was expressed as pmol per min per mg of protein, as reported in [67].

SMILES	CB2 protein expression (in words) (CB2 [1])	Protein Expression CB2 (CB2 [1])	pIC50 (HaCaT cells; 6 h)	pIC50 (HaCaT cells; 12 h)	pIC50 (HaCaT cells; 24 h)	PPARδ protein expression (in words) (PPARδ)	Protein Expression PPARδ (PPARδ)	activity at CB2 (CB2 [2]; ref [28],[50],[51])	activity of MAGL (MAGL)	DAGLα/β activity (DAGLα/β)	NAPE-PLD protein expression (in words) (NAPE-PLD)	PPARα protein expression (in words) (PPARα)	Protein Expression PPARα (PPARα)	effectiveness in human TRPV1 (human TRPV1)	activity of FAAH (FAAH)	activity at CB2 (CB2 [2]; ref [52])	Protein Expression NAPE-PLD (NAPE-PLD)	relative toxicity on HaCaT cells (HaCaT cells)	activity at CB2 (CB2 [2]; in vivo and in vitro, ref [53])
CCCCCc1cc(O)c2c(c1)OC(C)(CCC=C(C)C)C=C2 (stereo not shown) [CBC, cannabichromene]	reducing	↓+	4.82	4.81	5.09	significantly reduced	↓++++	CB2 agonist	significantly increased	increased DAGLα/β activity remarkably	significantly increased	significantly reduced	↓++	to a lesser extent	significantly increased	–	–	–	–
CCCCCc1cc(O)c(C/C=C(\C)CCC=C(C)C)c(O)c1 [CBG, cannabigerol]	reducing	↓+	4.87	4.89	4.93	significantly reduced	↓+++	–	significantly increased	increased DAGLα/β activity remarkably	significantly increased	–	–	high effectiveness	significantly increased	partial agonists	↑++++	–	–
CCCCCc1cc(O)c(C/C=C(\C)CCC=C(C)C)c(O)c1C(=O)O [CBGA, cannabigerolic acid]	reducing	↓++++	< 4.60	4.61	< 4.60	significantly reduced	↓++++	–	significantly increased	–	significantly increased	significantly reduced	↓++++	–	significantly increased	partial agonists	NAPE-PLD ↑++++ FAAH ↑++++ DAGLα ↑++++ MAGL ↑++++	least toxic	–
CCCc1cc(O)c2c(c1)OC(C)(C)[C@@H]1CCC(C)=C[C@@H]21 [THCV, Δ^9-tetrahydrocannabivarin]	reducing	↓+++	4.84	4.65	4.73	significantly reduced	↓++++	–	significantly increased	increased DAGLα/β activity remarkably	significantly increased	significantly reduced	↓++	high effectiveness	significantly increased	–	↑++++	least toxic	partial CB2 agonist
